How the values were obtained:
[1] = system: tracheal preparations (guinea pig trachea); assay: in vitro tracheal preparations of the guinea pig, relaxation under isoproterenol
[2] = system: β-adrenoceptor (guinea pig atrium); assay: spontaneously beating guinea pig atrium test: inhibition of the positive chronotropic isoprenaline effect; settings: β-adrenoceptor blocking activity, vs isoprenaline
[3] = at concentrations as high as 1×10^-4 M

Compound	effect in the trachea ([1]; at concentrations as high as 2×10^-5 M)	Guinea pig atrium test Effective dose (molar concentration) [2] [nM]	effect in the trachea [1, 3]
COCCc1ccc(OCC(O)CNCCNC(=O)C2CCCOC2)cc1 (centres unmarked) [Example 1, 1-[4-(2-Methoxyethyl)phenoxy]-3-[2-(tetrahydropyran-3-ylcarbonylamino)ethylamino]-2-propanol]	no effect		
COCCc1ccc(OCC(O)CNCCNC(=O)C2CCOCC2)cc1 (centres unmarked) [Example 3]		200	
COCCOc1ccc(OCC(O)CNCCNC(=O)C2CCOCC2)cc1 (centres unmarked) [Example 6]		400	no effect
COCCc1ccc(OCC(O)CNCCNC(=O)C2CCOCC2)c(C#N)c1 (centres unmarked) [Example 7]		80	
COCCc1ccc(OCC(O)CNCCNC(=O)C2CCCOC2)c(Br)c1 (centres unmarked) [Example 8]		80	
COCCc1ccc(OCC(O)CNCCNC(=O)C2CCCOC2)c(C#N)c1 (centres unmarked) [Example 9]		300	
O=C(NCCNCC(O)COc1ccc(OCCOCC2CC2)cc1)C1CCCOC1 (centres unmarked) [Example 10]			no effect
O=C(NCCNCC(O)COc1ccc(OCCOCC2CC2)cc1)C1CCOCC1 (centres unmarked) [Example 11]		200	no effect
O=C(NCCCNCC(O)COc1ccc(OCCOCC2CC2)cc1)C1CCOCC1 (centres unmarked) [Example 12]		3000	

— patent US4661513A, “3-aminopropoxyphenyl derivatives, their preparation and pharmaceutical compositions containing them” (Louis; William John, priority 1982, dated 1987)
